Assay [1] concerns the target T1, FPTase (Homo sapiens, UniProt P49354+P49356). In words: in vitro FTase Inhibition Assay, H-Ras used as substrate for farnesylation. Format: biochemical. The procedure:
(§1) Enzyme test procedure: FPTase inhibition in vitro assay was performed according to James, G. L., Brown, M. S., and Goldstein, J. L., Methods in Enzymology, 1995, 255, 38-46; and Garcia, M. A., et al., J. Biol. Chem., 1993, 268, 18415-18420.
(§2) Materials—Purified FPTase (Moomaw, J. F. and Casey, P. J., J. Biol. Chem., 1992, 267, 17438-17443), purified His6-Ras, inhibitor compounds at 10 mg/ml or 10 mM in 100% DMSO, ^3H-FPP (50,000 dpm/pmol) Amersham, TCA/SDS (6%/2%), TCA (6%), Glass fiber filters ([…]), vacuum manifold or 96 well filtration plates.
(§3) Methods—1. Dilute FPTase inhibitors from stock solutions to 2.5× in 2.5% DMSO, 10 mM DTT, 0.5% octyl-B-glucoside. 2. Solution #1 is added to FPTase reaction in a volume of […]. 3. Standard reaction mix, […], contains 50 mM Tris (7.5), 10 mM ZnCl2, 3 mM MgCl2, 20 mM KCl, 5 mM DTT, 0.2% octyl-B-glucoside, 1% DMSO, […] His6-Ras, 10 ng FPTase, and various concentrations of FPTase inhibitors. 4. Incubate for 30-90 min at 25° C. 5. Stop reactions with TCA/SDS (6%/2%), hold at 4° C. for 45-60 min. 6. Filter by manifold or 96 well plate, wash filter 3-5× with TCA (6%). 7. Add scintillant to filters, measure ^3H-FPP incorporation into Ras protein.
(§4) Analysis of Results—Percent inhibition by test compounds is determined by the following:
(§5) (cpm from precipitated Ras with test compounds)−(background cpm)×100=% inhibition.
(§6) (cpm from precipitated Ras without test compounds)−(background cpm)

The target of assay [2] is T1, FPTase. In words: in vitro FTase Inhibition Assay, K-Ras used as substrate for farnesylation. Format: biochemical. The note with it: Table I. The procedure: as §1, §2, §3, §4, §5, §6
Setting [3] is: Table II, read-out: IC50 (wi. H-Ras).

In general, IC50 refers to the concentration that inhibits the measured activity by half. Take “5-(4-Iodobenzenesulfonyl)-5-[5-(2-methyl-4-nitrophenyl)pent-4-ynyl]-thiazolidine-2,4-dione [Example 131]”: the IC50 at FPTase [1] (Table I, read-out: IC50 H-Ras*) is 6 to 32 nM; at FPTase [2], 80 to 310 nM.

Take `O=C1NC(=O)C(CCCC#Cc2ccc(Cl)cc2)(Sc2ccc(F)cc2)S1` (centres unmarked) [Example 96, 5-[5-(4-Chlorophenyl)pent-4-ynyl]-5-(4-fluorophenylsulfanyl)-thiazolidine-2,4-dione]: the IC50 at FPTase [1] (Table I, read-out: IC50 H-Ras*) turned out to be 700 nM.

With `COc1ccc(S(=O)(=O)C2(CC#Cc3cccnc3)SC(=O)NC2=O)cc1` (centres unmarked) [Example 167, 5-(4-Methoxybenzenesulfonyl)-5-(3-pyridin-3-ylprop-2-ynyl)-thiazolidine-2,4-dione], the IC50 on FPTase [1] (Table I, read-out: IC50 H-Ras*) was determined as 1500 nM.

For the molecule `Cc1ccc(S(=O)(=O)C2(CC#Cc3cccs3)SC(=O)NC2=O)cc1` (centres unmarked) [Example 168, 5-(3-Thiophen-2-yl-prop-2-ynyl)-5-(toluene-4-sulfonyl)-thiazolidine-2,4-dione], on FPTase [1] (Table I, read-out: IC50 H-Ras*), the IC50 came out at 280 nM.

Turning to `COc1ccc(S(=O)(=O)C2(CCCC#Cc3ccc(Cl)cc3)SC(=O)N(CCCn3ccnc3)C2=O)cc1` (centres unmarked) [Example 233, 5-[5-(4-Chlorophenyl)pent-4-ynyl]-3-(3-imidazol-1-yl-propyl)-5-(4-methoxybenzenesulfonyl)-thiazolidine-2,4-dione], at FPTase [1] (Table I, read-out: IC50 H-Ras*), the IC50 was found to be 2900 nM.

In the case of `O=C1NC(=O)C(CC#Cc2ccc(Cl)cc2)(S(=O)(=O)c2ccc3ccccc3c2)S1` (centres unmarked) [Example 239, 5-[3-(4-Chloro-phenyl)-prop-2-ynyl]-5-(napthalene-2-sulfonyl)-thiazolidine-2,4-dione], on FPTase [1] (setting [3]), the IC50 stood at 700 nM.

For the molecule `O=C1NC(=O)C(CC#Cc2ccc(Cl)cc2)(S(=O)(=O)c2ccccc2)S1` (centres unmarked) [Example 240, 5-Benzenesulfonyl-5-[3-(4-chloro-phenyl)-prop-2-ynyl]-thiazolidine-2,4-dione], on FPTase [1] (setting [3]), the IC50 came to 500 nM.

In the case of `O=C1NC(=O)C(CC#Cc2ccccc2)(S(=O)(=O)c2ccccc2)S1` (centres unmarked) [Example 241, 5-Benzenesulfonyl-5-[3-phenyl-prop-2-ynyl]-thiazolidine-2,4-dione], the IC50 on FPTase [1] (setting [3]) was 1500 nM.

As for `O=C1NC(=O)C(CC#Cc2ccccc2)(S(=O)(=O)c2ccc(Cl)cc2)S1` (centres unmarked) [Example 242, 5-(4-Chloro-benzenesulfonyl)-5-(3-phenyl-prop-2-ynyl)-thiazolidine-2,4-dione], the IC50 on FPTase [1] (setting [3]) was found to be 1000 nM.

On to `O=C1NC(=O)C(CC#Cc2ccc(Cl)cc2)(S(=O)(=O)c2ccc(F)cc2)S1` (centres unmarked) [Example 243, 5-[3-(4-Chloro-phenyl)-prop-2-ynyl]-5-(4-fluoro-benzenesulfonyl)-thiazolidine-2,4-dione], for which the IC50 at FPTase [1] (setting [3]) was determined as 300 nM.

As to `O=C1NC(=O)C(CC#Cc2ccc(Cl)cc2)(S(=O)(=O)c2ccc(Cl)cc2)S1` (centres unmarked) [Example 244, 5-(4-Chloro-benzenesulfonyl)-5-[3-(4-chloro-phenyl)-prop-2-ynyl]-thiazolidine-2,4-dione], the IC50 on FPTase [1] (setting [3]) is 100 nM.

`O=C1NC(=O)C(CC#Cc2ccc(Cl)cc2)(S(=O)(=O)c2ccc(Br)cc2)S1` (centres unmarked) [Example 245, 5-(4-Bromo-benzenesulfonyl)-5-[3-(4-chloro-phenyl)-prop-2-ynyl]-thiazolidine-2,4-dione]: on FPTase [1] (setting [3]), the IC50 stood at 50 nM.

`Cc1ccc(S(=O)(=O)C2(CC#Cc3ccc(F)cc3)SC(=O)NC2=O)cc1` (centres unmarked) [Example 246, 5-[3-(4-Fluoro-phenyl)-prop-2-ynyl]-5-(toluene-4-sulfonyl)-thiazolidine-2,4-dione]: the IC50 at FPTase [1] (setting [3]) is 300 nM.

Consider `Cc1ccc(C#CCC2(S(=O)(=O)c3ccc(C)cc3)SC(=O)NC2=O)cc1` (centres unmarked) [Example 247, 5-(Toluene-4-sulfonyl)-5-[3-(p-tolyl)-prop-2-ynyl]-thiazolidine-2,4-dione], for which the IC50 at FPTase [1] (setting [3]) came out at 300 nM.

For `O=C1NC(=O)C(CC#Cc2ccccc2)(S(=O)(=O)c2ccc(Br)cc2)S1` (centres unmarked) [Example 248, 5-(4-Bromo-benzenesulfonyl)-5-(3-phenyl-prop-2-ynyl)-thiazolidine-2,4-dione], the IC50 at FPTase [1] (setting [3]) came out at 450 nM.

As for `COc1ccc(S(=O)(=O)C2(CC#Cc3ccc(Cl)cc3)SC(=O)NC2=O)cc1` (centres unmarked) [Example 249, 5-[3-(4-Chloro-phenyl)-prop-2-ynyl]-5-(4-methoxy-benzenesulfonyl)-thiazolidine-2,4-dione], the IC50 on FPTase [1] (setting [3]) amounted to 400 nM.

Consider `O=C1NC(=O)C(CC#Cc2ccccc2)(S(=O)(=O)c2ccc3ccccc3c2)S1` (centres unmarked) [Example 250, 5-(Naphthalene-2-sulfonyl)-5-(3-phenyl-prop-2-ynyl)-thiazolidine-2,4-dione], for which the 50% inhibitory concentration (IC50) at FPTase [1] (setting [3]) was found to be 1500 nM.

Consider `Cc1ccc(S(=O)(=O)C2(CC#Cc3ccc(C(F)(F)F)cc3)SC(=O)NC2=O)cc1` (centres unmarked) [Example 251, 5-(Toluene-4-sulfonyl)-5-[3-(4-trifluoromethyl-phenyl)-prop-2-ynyl]-thiazolidine-2,4-dione], for which the IC50 on FPTase [1] (setting [3]) came to 150 nM.

For the molecule `COc1ccc(C#CCC2(S(=O)(=O)c3ccc(C)cc3)SC(=O)NC2=O)cc1` (centres unmarked) [Example 252, 5-[3-(4-Methoxy-phenyl)-prop-2-ynyl]-5-(toluene-4-sulfonyl)-thiazolidine-2,4-dione], the IC50 on FPTase [1] (setting [3]) was found to be 80 nM.

With `Cc1ccc(S(=O)(=O)C2(CC#Cc3ccc(Br)cc3)SC(=O)NC2=O)cc1` (centres unmarked) [Example 253, 5-[3-(4-Bromo-phenyl)-prop-2-ynyl]-5-(toluene-4-sulfonyl)-thiazolidine-2,4-dione], the IC50 at FPTase [1] (setting [3]) was determined as 90 nM.

On to `O=C1NC(=O)C(CC#Cc2ccc(C(F)(F)F)cc2)(S(=O)(=O)c2ccccc2)S1` (centres unmarked) [Example 254, 5-Benzenesulfonyl-5-[3-(4-trifluoromethyl-phenyl)-prop-2-ynyl]-thiazolidine-2,4-dione], for which the IC50 at FPTase [1] (setting [3]) came to 500 nM.

Regarding `O=C1NC(=O)C(CC#Cc2ccc(F)cc2)(S(=O)(=O)c2ccc(Cl)cc2)S1` (centres unmarked) [Example 255, 5-(4-Chloro-benzenesulfonyl)-5-[3-(4-fluoro-phenyl)-prop-2-ynyl]-thiazolidine-2,4-dione], the IC50 at FPTase [1] (setting [3]) was determined as 150 nM.

As for `Cc1cccc(S(=O)(=O)C2(CC#Cc3ccc(Cl)cc3)SC(=O)NC2=O)c1` (centres unmarked) [Example 256, 5-[3-(4-Chloro-phenyl)-prop-2-ynyl]-5-(toluene-3-sulfonyl)-thiazolidine-2,4-dione], the IC50 at FPTase [1] (setting [3]) was found to be 800 nM.

Take `Cc1ccc(S(=O)(=O)C2(CC#Cc3cccc(Cl)c3)SC(=O)NC2=O)cc1` (centres unmarked) [Example 257, 5-[3-(3-Chloro-phenyl)-prop-2-ynyl]-5-(toluene-4-sulfonyl)-thiazolidine-2,4-dione]: at FPTase [1] (setting [3]), the IC50 was 35 nM.

Take `O=C1NC(=O)C(CC#Cc2ccccc2Cl)(S(=O)(=O)c2ccccc2)S1` (centres unmarked) [Example 258, 5-Benzenesulfonyl-5-[3-(2-chloro-phenyl)-prop-2-ynyl]-thiazolidine-2,4-dione]: the IC50 on FPTase [1] (setting [3]) is 2000 nM.

For the molecule `O=C1NC(=O)C(CC#Cc2cc(C(F)(F)F)cc(C(F)(F)F)c2)(S(=O)(=O)c2ccccc2)S1` (centres unmarked) [Example 259, 5-Benzenesulfonyl-5-[3-(3,5-bis-trifluoromethyl-phenyl)-prop-2-ynyl]-thiazolidine-2,4-dione], at FPTase [1] (setting [3]), the IC50 is 150 nM.

Consider `Cc1ccc(S(=O)(=O)C2(CC#Cc3cc(C(F)(F)F)cc(C(F)(F)F)c3)SC(=O)NC2=O)cc1` (centres unmarked) [Example 260, 5-[3-(3,5-bis-Trifluoromethyl-phenyl)-prop-2-ynyl]-5-(toluene-4-sulfonyl)-thiazolidine-2,4-dione], for which the IC50 on FPTase [1] (setting [3]) stood at 100 nM.

For `O=C1NC(=O)C(CC#Cc2cccc(Cl)c2)(S(=O)(=O)c2ccccc2)S1` (centres unmarked) [Example 261, 5-Benzenesulfonyl-5-[3-(3-chloro-phenyl)-prop-2-ynyl]-thiazolidine-2,4-dione], the IC50 on FPTase [1] (setting [3]) was 300 nM.

For the molecule `Cc1ccc(S(=O)(=O)C2(CC#Cc3ccc(Cl)cc3)SC(=O)NC2=O)cc1` (centres unmarked) [Example 262], the IC50 at FPTase [1] (setting [3]) amounted to 70 nM.

Regarding `O=C1NC(=O)C(CC#Cc2ccc(Br)cc2)(S(=O)(=O)c2ccc(Cl)cc2)S1` (centres unmarked) [Example 263, 5-[3-(4-Bromo-phenyl)-prop-2-ynyl]-5-(4-chloro-benzenesulfonyl)-thiazolidine-2,4-dione], the IC50 at FPTase [1] (setting [3]) stood at 150 nM.

On to `O=C1NC(=O)C(CC#Cc2ccc(C(F)(F)F)cc2)(S(=O)(=O)c2ccc(F)cc2)S1` (centres unmarked) [Example 264, 5-(4-Fluoro-benzenesulfonyl)-5-[3-(4-trifluoromethyl-phenyl)-prop-2-ynyl)-thiazolidine-2,4-dione], for which the IC50 at FPTase [1] (setting [3]) stood at 300 nM.

Regarding `O=C1NC(=O)C(CC#Cc2ccc(Cl)cc2)(S(=O)(=O)c2ccc3ccccc3n2)S1` (centres unmarked) [Example 265, 5-[3-(4-Chloro-phenyl)-prop-2-ynyl]-5-(quinoline-2-sulfonyl)-thiazolidine-2,4-dione], the IC50 on FPTase [1] (setting [3]) was determined as 1500 nM.

Regarding `O=C1NC(=O)C(CC#Cc2cc(C(F)(F)F)cc(C(F)(F)F)c2)S1` (centres unmarked) [Example 266, 5-[3-(3,5-bis-Trifluoromethyl-phenyl)-prop-2-ynyl]-thiazolidine-2,4-dione], the IC50 on FPTase [1] (setting [3]) was 500 nM.

In the case of `Cc1ccc(SC2(CC#Cc3ccc(Cl)cc3)SC(=O)NC2=O)cc1` (centres unmarked) [Example 267, 5-[3-(4-Chloro-phenyl)-prop-2-ynyl]-5-(p-tolylsulfanyl)-thiazolidine-2,4-dione], the IC50 at FPTase [1] (setting [3]) came to 5000 nM.

These data come from US6605628B1, “Method of using 5-(arysulfonyl)-, 5-(arylsulfanyl)-and 5-(arylsulfanyl)thiazolidine-2,4-diones for inhibition of farnesyl-protein transferase” (Wyeth Holdings Corporation, priority 2001, dated 2003).
